Data published in ChEMBL document CHEMBL3046375, “Antifungal activity of simple compounds with maleic anhydride or dimethylmaleimide structure against Botrytis cinerea” (J Pestic Sci, 2012).
Values after ≈ are worked out from the molar mass of the structure shown.

Columns and labels:
Botrytis cinerea [1] = experiment: Antifungal actiivty against Botryotinia fuckeliana ACCC 30387 assessed as inhibition of radial growth after 3 days; assay type: functional; settings: ACCC 30387, 72 h
Botrytis cinerea [2] = experiment: Antifungal actiivty against Botryotinia fuckeliana; assay type: functional

| MIC (Botrytis cinerea [1]) [µg/mL] | MIC (Botrytis cinerea [2]) [µg/mL] | Structure (SMILES) |
| --- | --- | --- |
| 10 (≈ 41.1 µM) |  | CC1=C(C)C(=O)N(CCCc2ccccc2)C1=O |
| > 1000 |  | Cc1ccc2c(c1)C(=O)OC2=O |
| > 1000 |  | O=C(O)c1ccc2c(c1)C(=O)OC2=O |
| 150 (≈ 815 µM) |  | O=C1OC(=O)c2c(F)ccc(F)c21 |
| 500 (≈ 2270 µM) |  | O=C1OC(=O)c2c(F)c(F)c(F)c(F)c21 |
| > 1000 |  | O=C1OC(=O)c2c1ccc(Cl)c2Cl |
| > 1000 |  | O=C1OC(=O)c2c(Cl)ccc(Cl)c21 |
| 1000 (≈ 5650 µM) |  | O=C1C=C(Br)C(=O)O1 |
| 150 (≈ 861 µM) |  | O=C1C=C(c2ccccc2)C(=O)O1 |
| 20 (≈ 79.9 µM) |  | O=C1OC(=O)C(c2ccccc2)=C1c1ccccc1 |
| 100 (≈ 599 µM) |  | O=C1OC(=O)C(Cl)=C1Cl |
| 3 (≈ 23.8 µM) |  | CC1=C(C)C(=O)OC1=O |
| 10 (≈ 48.8 µM) |  | CC1=C(CBr)C(=O)OC1=O |
| 8 (≈ 28.1 µM) |  | CCOC(=O)C(CC1=C(C)C(=O)OC1=O)C(=O)OCC |
| 80 (≈ 434 µM) |  | CC1=C(CCC(=O)O)C(=O)OC1=O |
| 125 (≈ 440 µM) |  | O=C1OC(=O)C(CBr)=C1CBr |
| 50 (≈ 175 µM) |  | CC1=C(CNc2cc(Cl)cc(Cl)c2)C(=O)OC1=O |
| 5 (≈ 25.6 µM) |  | CCCCCN1C(=O)C(C)=C(C)C1=O |
| 50 (≈ 211 µM) |  | CCCCCCCCN1C(=O)C(C)=C(C)C1=O |
| 50 (≈ 170 µM) |  | CCCCCCCCCCCCN1C(=O)C(C)=C(C)C1=O |
| 10 (≈ 48.2 µM) |  | CC1=C(C)C(=O)N(C2CCCCC2)C1=O |
| 5 (≈ 23.2 µM) |  | CC1=C(C)C(=O)N(c2ccc(C)cc2)C1=O |
| 10 (≈ 42.4 µM) |  | CC1=C(C)C(=O)N(c2ccc(Cl)cc2)C1=O |
| 0.1 (≈ 0.37 µM) |  | CC1=C(C)C(=O)N(c2cc(Cl)cc(Cl)c2)C1=O |
| 10 (≈ 41.5 µM) |  | CC1=C(C)C(=O)N(c2nc3ccccc3[nH]2)C1=O |
|  | 0.78 (≈ 2 µM) | CCCCC1CC2=C(CC(C(O)CCCC)C3=C1C(=O)OC3=O)C(=O)OC2=O (stereo unspecified) |
| 1 (≈ 4.97 µM) |  | CC1=C(C)C(=O)N(c2ccccc2)C1=O |

Further lines, the compound ahead of its results:

| Structure (SMILES) | MIC (Botrytis cinerea [1]) [µg/mL] | MIC (Botrytis cinerea [2]) [µg/mL] |
| --- | --- | --- |
| CC1=C(C)C(=O)N(Cc2ccccc2)C1=O | 5 (≈ 23.2 µM) |  |
| CC1=C(C)C(=O)N(CCc2ccccc2)C1=O | 75 (≈ 327 µM) |  |
| O=C1OC(=O)c2c(F)cccc21 | 500 (≈ 3010 µM) |  |
| O=C1OC(=O)c2cc(Cl)c(Cl)cc21 | 500 (≈ 2300 µM) |  |
| CC1=C(CO)C(=O)OC1=O | > 1000 |  |
| CCCC1=C(C)C(=O)OC1=O | 25 (≈ 162 µM) |  |
| CCCCCC1=C(C)C(=O)OC1=O | 5 (≈ 27.4 µM) |  |
| CCCCCCC1=C(C)C(=O)OC1=O | 4 (≈ 20.4 µM) |  |
| CCCCCCCCCCC1=C(C)C(=O)OC1=O | 3 (≈ 11.9 µM) |  |
| CC(=O)OCC1=C(C)C(=O)OC1=O | 20 (≈ 109 µM) |  |
| CC1=C(COC(=O)c2ccccc2)C(=O)OC1=O | 15 (≈ 60.9 µM) |  |
| CCCCN1C(=O)C(C)=C(C)C1=O | 5 (≈ 27.6 µM) |  |
| CC1=C(C)C(=O)N(CC(C)C)C1=O | 50 (≈ 276 µM) |  |
| CCCCCCN1C(=O)C(C)=C(C)C1=O | 5 (≈ 23.9 µM) |  |
| CC1=C(C)C(=O)N(c2cccc([N+](=O)[O-])c2C)C1=O | 10 (≈ 38.4 µM) |  |
| CC1=C(C)C(=O)N(c2ccc(F)c(F)c2F)C1=O | 1 (≈ 3.92 µM) |  |
| Nc1c(Cl)cc([N+](=O)[O-])cc1Cl [ALLISAN] | 0.1 (≈ 0.483 µM) |  |
| O=C1C=CC(=O)O1 [MALEIC ANHYDRIDE] | 250 (≈ 2550 µM) |  |
| O=C1OC(=O)c2ccccc21 [PHTHALIC ANHYDRIDE] | > 1000 |  |
